Like-named read-outs stand apart in the source and are kept apart here.
How the values were obtained:
LLC-PK1 control cells [1] = test: Intracellular uptake of HIV protease inhibitors; type: in vitro ADME, porcine
LLC-PK1 control cells [2] = test system: LLC-PK1 control cells
[3] = test system: P-gp (MDR11199, G1199A) in recombinant LLC-PK1 cells; settings: human, LLC-PK1
[4] = biological target: MDR1-wt in recombinant LLC-PK1 cells (Homo sapiens, UniProt P08183, G185V/S893A)
[5] = biological target: MDR1-1199A in recombinant LLC-PK1 cells (Homo sapiens, UniProt P08183, G185V/S400N/S893A)
Chain of MDR1-1199A in recombinant LLC-PK1 cells (P08183 whole entry G185V/S400N/S893A): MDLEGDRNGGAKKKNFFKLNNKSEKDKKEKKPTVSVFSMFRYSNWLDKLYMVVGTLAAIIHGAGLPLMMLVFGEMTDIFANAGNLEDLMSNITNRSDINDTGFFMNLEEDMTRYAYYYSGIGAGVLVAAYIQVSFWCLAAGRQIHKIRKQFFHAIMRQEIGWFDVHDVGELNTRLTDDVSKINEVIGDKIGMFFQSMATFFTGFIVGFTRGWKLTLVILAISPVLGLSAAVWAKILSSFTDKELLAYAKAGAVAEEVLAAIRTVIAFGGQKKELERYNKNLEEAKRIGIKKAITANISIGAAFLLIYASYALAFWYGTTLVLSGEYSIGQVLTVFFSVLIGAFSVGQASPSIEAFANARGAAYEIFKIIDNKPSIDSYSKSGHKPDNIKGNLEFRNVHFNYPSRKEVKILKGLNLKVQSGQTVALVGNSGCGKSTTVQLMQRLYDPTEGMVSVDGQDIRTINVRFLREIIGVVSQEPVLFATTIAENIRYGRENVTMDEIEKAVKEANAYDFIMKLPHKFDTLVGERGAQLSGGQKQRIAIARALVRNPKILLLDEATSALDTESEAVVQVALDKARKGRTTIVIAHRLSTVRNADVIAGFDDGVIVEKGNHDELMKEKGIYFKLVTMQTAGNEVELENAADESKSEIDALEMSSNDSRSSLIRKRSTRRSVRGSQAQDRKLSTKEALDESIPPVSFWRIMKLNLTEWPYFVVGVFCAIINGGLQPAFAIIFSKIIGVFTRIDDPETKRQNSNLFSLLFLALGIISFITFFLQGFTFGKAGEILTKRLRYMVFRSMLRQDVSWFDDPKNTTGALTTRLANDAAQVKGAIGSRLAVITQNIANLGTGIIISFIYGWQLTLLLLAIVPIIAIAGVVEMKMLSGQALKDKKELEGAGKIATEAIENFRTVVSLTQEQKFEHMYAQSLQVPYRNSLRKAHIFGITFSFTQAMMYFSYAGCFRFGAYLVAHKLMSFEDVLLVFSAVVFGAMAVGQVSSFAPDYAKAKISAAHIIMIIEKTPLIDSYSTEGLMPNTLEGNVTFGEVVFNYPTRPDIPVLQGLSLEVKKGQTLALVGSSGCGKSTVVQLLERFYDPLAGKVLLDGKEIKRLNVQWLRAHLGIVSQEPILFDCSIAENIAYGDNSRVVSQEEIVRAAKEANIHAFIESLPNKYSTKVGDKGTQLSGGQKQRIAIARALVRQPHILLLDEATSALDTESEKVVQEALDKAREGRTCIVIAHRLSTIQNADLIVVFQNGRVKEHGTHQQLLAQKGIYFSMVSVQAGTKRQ

MDR1 (wild type) = MDR1 (wild type) (Homo sapiens, UniProt P08183, G185V/S893A); test: in vitro
Chain of MDR1 (wild type) (P08183 whole entry G185V/S893A): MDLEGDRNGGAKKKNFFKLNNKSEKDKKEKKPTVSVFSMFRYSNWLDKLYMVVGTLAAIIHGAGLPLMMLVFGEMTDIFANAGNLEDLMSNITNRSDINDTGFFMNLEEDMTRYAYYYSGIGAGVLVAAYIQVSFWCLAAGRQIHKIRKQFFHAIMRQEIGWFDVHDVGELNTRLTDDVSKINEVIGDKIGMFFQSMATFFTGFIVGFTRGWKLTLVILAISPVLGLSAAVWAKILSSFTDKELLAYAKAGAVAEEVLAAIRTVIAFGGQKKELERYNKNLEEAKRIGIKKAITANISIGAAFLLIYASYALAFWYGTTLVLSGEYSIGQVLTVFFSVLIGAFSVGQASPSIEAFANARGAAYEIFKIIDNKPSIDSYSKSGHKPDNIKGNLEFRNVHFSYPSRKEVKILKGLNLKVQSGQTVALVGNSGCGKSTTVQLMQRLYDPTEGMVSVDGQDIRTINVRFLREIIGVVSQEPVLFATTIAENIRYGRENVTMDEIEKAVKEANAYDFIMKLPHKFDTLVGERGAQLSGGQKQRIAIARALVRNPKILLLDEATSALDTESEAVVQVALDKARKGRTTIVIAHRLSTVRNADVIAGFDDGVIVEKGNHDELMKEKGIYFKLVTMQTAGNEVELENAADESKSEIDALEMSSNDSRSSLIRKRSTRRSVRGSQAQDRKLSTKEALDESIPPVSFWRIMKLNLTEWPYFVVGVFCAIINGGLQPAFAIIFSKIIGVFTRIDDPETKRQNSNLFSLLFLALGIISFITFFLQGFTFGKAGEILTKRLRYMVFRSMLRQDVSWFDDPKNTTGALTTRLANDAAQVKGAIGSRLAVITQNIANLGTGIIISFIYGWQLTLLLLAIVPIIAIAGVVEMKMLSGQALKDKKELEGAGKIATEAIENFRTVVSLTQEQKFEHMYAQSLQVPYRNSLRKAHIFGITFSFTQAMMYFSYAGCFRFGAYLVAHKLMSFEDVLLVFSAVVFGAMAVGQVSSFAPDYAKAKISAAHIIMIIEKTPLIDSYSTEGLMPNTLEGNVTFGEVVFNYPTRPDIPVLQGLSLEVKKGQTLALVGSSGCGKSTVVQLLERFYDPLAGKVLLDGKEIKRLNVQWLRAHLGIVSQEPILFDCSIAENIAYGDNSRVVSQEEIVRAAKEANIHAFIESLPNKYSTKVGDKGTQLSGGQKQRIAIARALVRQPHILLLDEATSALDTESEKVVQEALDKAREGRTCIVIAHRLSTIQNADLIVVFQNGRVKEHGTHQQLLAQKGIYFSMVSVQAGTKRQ

MDR1 (1199A variant) = MDR1 (1199A variant) (Homo sapiens, UniProt P08183, G185V/S400N/S893A); test: Intracellular uptake of HIV protease inhibitors; settings: recombinant LLC-PK1 cells expressing MDR1-1199A
Chain of MDR1 (1199A variant) (P08183 whole entry G185V/S400N/S893A): as the sequence (P08183 whole entry G185V/S400N/S893A) above

[6] = test system: HEK negative control cells; test: Cytotoxic drug sensitivity assay (MTS); type: cell-based, human; settings: HEK Control; 72hours, MTS; read-out: EC50 (Mean ± S.D.)
HEK - MDR1 WT cells = test: Cytotoxic drug sensitivity assay (MTS); type: cell-based, human; settings: HEK MDR1 WT; 72hours, MTS; read-out: EC50 (Mean ± S.D.)
HEK - MDR1 G1199T cells = test: Cytotoxic drug sensitivity assay (MTS); type: cell-based, human; settings: HEK MDR1 G1199T; 72hours, MTS; read-out: EC50 (Mean ± S.D.)
[7] = protease inhibitor + GF120918 (1 μM)

Chain of MDR1-wt in recombinant LLC-PK1 cells (P08183 whole entry G185V/S893A): as the sequence (P08183 whole entry G185V/S893A) above

| Compound | Km (LLC-PK1 control cells [1]) [µM] | Vmax (LLC-PK1 control cells [1]) [pmole/min*10^6 cells] | Rate of transfer dQ/dt ± s.d., A → B (LLC-PK1 control cells [2]; [7]) | Rate of transfer dQ/dt ± s.d., B → A (LLC-PK1 control cells [2]; [7]) | Rate of transfer dQ/dt ± s.d., A → B (LLC-PK1 control cells [2]; protease inhibitor alone, 5 μM) | Rate of transfer dQ/dt ± s.d., B → A (LLC-PK1 control cells [2]; protease inhibitor alone, 5 μM) | decrease in apical-to-basolateral flux in MDR11199 cells compared to MDR1wt cells [3] [fold] | Vmax [4] [pmole/min*10^6 cells] | Vmax [5] [pmole/min*10^6 cells] | Km (MDR1 (wild type)) [µM] | Km (MDR1 (1199A variant)) [µM] | EC50 [6] [µM] | EC50 (HEK - MDR1 WT cells) [µM] | EC50 (HEK - MDR1 G1199T cells) [µM] | EC50 (HEK - MDR1 G1199A cells) [µM] |
| --- | --- | --- | --- | --- | --- | --- | --- | --- | --- | --- | --- | --- | --- | --- | --- |
| CC(C)(C)NC(=O)[C@@H]1C[C@@H]2CCCC[C@@H]2CN1C[C@@H](O)[C@H](Cc1ccccc1)NC(=O)[C@H](CC(N)=O)NC(=O)c1ccc2ccccc2n1 [saquinavir] | 2 | 1.47 | 3.48 ± 0.57 | 7.36 ± 0.60 | 3.02 ± 0.35 | 8.03 ± 0.51 | 2.3 | 1.13 | 1.00 | 18 | 14.5 | – | – | – | – |
| ivermectin | – | – | – | – | – | – | – | – | – | – | – | 4.1 ± 0.21 | 3.809 ± 0.0273 | 3.84 ± 0.307 | 4.04 ± 0.0776 |
